From ChEMBL document CHEMBL4371018, “Macrocyclic Trichothecene Mycotoxins from a Deadly Poisonous Mushroom, Podostroma cornu-damae” (J Nat Prod, 2019) come the findings set out here.

A word on the IC50: it is the concentration that gives 50% inhibition.

One assay concerns HCC70. The assay is described as follows: Cytotoxicity against human HCC70 cells assessed as growth inhibition after 72 hrs by SRB assay. The settings on record: Homo sapiens, HCC70, 72 h. Format: functional, cell-based. (In SRB staining, fixed cells bind dye roughly in proportion to their protein.)
Consider `C/C1=C\C(=O)OC[C@@]23CC[C@](C)(O)[C@H]4C[C@@]5(O)[C@@H](C[C@@H](OC(=O)/C=C\C=C\[C@H]([C@@H](C)O)OCC1)[C@]25C)O[C@H]43`, for which the IC50 was > 10000 nM.

In the case of `COc1cc([C@@H]2c3cc4c(cc3[C@@H](O[C@@H]3O[C@@H]5CO[C@@H](C)O[C@H]5[C@H](O)[C@H]3O)[C@H]3COC(=O)[C@H]23)OCO4)cc(OC)c1O` [ETOPOSIDE], the IC50 turned out to be 1800 nM.

As to `COc1cccc2c1C(=O)c1c(O)c3c(c(O)c1C2=O)C[C@@](O)(C(=O)CO)C[C@@H]3O[C@H]1C[C@H](N)[C@H](O)[C@H](C)O1` [DOXORUBICIN], the IC50 was determined as 50 nM.

Staying with this assay, now noted: hcc70.
`CC1=C[C@H]2O[C@@H]3C[C@@H](OC(=O)/C=C\C=C\[C@@H](OCCC4=CC(=O)OC4)[C@@H](C)O)[C@](C)([C@@]2(CO)CC1)[C@@]31CO1`: the IC50 is > 10000 nM.

`COC(=O)/C=C/C=C/[C@@H](OCC/C(C)=C/C(=O)OC[C@]12CCC(C)=C[C@H]1O[C@@H]1C[C@@H](O)[C@@]2(C)[C@@]12CO2)[C@@H](C)O`: the IC50 is > 10000 nM.

Take `CC1=C[C@H]2O[C@@H]3C[C@@H](OC(=O)/C=C\C=C\[C@@H](OCCC4=CC(=O)OC4)[C@@H](C)O)[C@](C)([C@@]2(COC(=O)/C=C(\C)CCO)CC1)[C@@]31CO1`: the 50% inhibitory concentration (IC50) amounted to 20 nM.

Regarding `CC1=C[C@H]2O[C@@H]3C[C@@H](OC(=O)/C=C\C=C\[C@]4([C@H](C)O)OCC/C(=C\C(=O)O)[C@@H]4O)[C@](C)([C@@]2(CO)CC1)[C@@]31CO1`, the IC50 was determined as 7700 nM.

Take `CC1=C[C@H]2O[C@@H]3C[C@H]4OC(=O)/C=C\C=C\[C@]5([C@H](C)O)OCC/C(=C\C(=O)OC[C@@]2(CC1)[C@]4(C)[C@@]31CO1)[C@H]5O`: the IC50 was determined as 2200 nM.

For the compound `CC1=C[C@H]2O[C@@H]3C[C@H]4OC(=O)/C=C\C=C\[C@]5([C@H](C)O)OCC/C(=C\C(=O)OC[C@@]2(CC1)[C@]4(C)[C@@]31CO1)[C@@H]5O`, the IC50 came out at 1 nM.

For `CC1=C[C@H]2O[C@@H]3C[C@H]4OC(=O)/C=C\C=C\[C@H]([C@@H](C)O)OCC/C(C)=C/C(=O)OC[C@@]2(CC1)[C@]4(C)[C@]31CO1` [RORIDIN E], the IC50 was found to be 0.02 nM.

In a further assay the test system is MDA-MB-231. The assay is described as follows: Cytotoxicity against human MDA-MB-231 cells assessed as growth inhibition after 72 hrs by SRB assay. The settings on record: Homo sapiens, MDA-MB-231, 72 h. In kind it is functional, cell-based.
Take `C/C1=C\C(=O)OC[C@@]23CC[C@](C)(O)[C@H]4C[C@@]5(O)[C@@H](C[C@@H](OC(=O)/C=C\C=C\[C@H]([C@@H](C)O)OCC1)[C@]25C)O[C@H]43`: the 50% inhibitory concentration (IC50) was > 10000 nM.

Consider `COc1cc([C@@H]2c3cc4c(cc3[C@@H](O[C@@H]3O[C@@H]5CO[C@@H](C)O[C@H]5[C@H](O)[C@H]3O)[C@H]3COC(=O)[C@H]23)OCO4)cc(OC)c1O` [ETOPOSIDE], for which the IC50 was found to be 2300 nM.

For `COc1cccc2c1C(=O)c1c(O)c3c(c(O)c1C2=O)C[C@@](O)(C(=O)CO)C[C@@H]3O[C@H]1C[C@H](N)[C@H](O)[C@H](C)O1` [DOXORUBICIN], the IC50 was found to be 80 nM.

Still in this assay, the particulars now being: mda-mb-231.
Consider `CC1=C[C@H]2O[C@@H]3C[C@@H](OC(=O)/C=C\C=C\[C@@H](OCCC4=CC(=O)OC4)[C@@H](C)O)[C@](C)([C@@]2(CO)CC1)[C@@]31CO1`, for which the IC50 is > 10000 nM.

For the compound `COC(=O)/C=C/C=C/[C@@H](OCC/C(C)=C/C(=O)OC[C@]12CCC(C)=C[C@H]1O[C@@H]1C[C@@H](O)[C@@]2(C)[C@@]12CO2)[C@@H](C)O`, the IC50 was > 10000 nM.

For the compound `CC1=C[C@H]2O[C@@H]3C[C@@H](OC(=O)/C=C\C=C\[C@@H](OCCC4=CC(=O)OC4)[C@@H](C)O)[C@](C)([C@@]2(COC(=O)/C=C(\C)CCO)CC1)[C@@]31CO1`, the half-maximal inhibitory concentration (IC50) amounted to 20 nM.

In the case of `CC1=C[C@H]2O[C@@H]3C[C@@H](OC(=O)/C=C\C=C\[C@]4([C@H](C)O)OCC/C(=C\C(=O)O)[C@@H]4O)[C@](C)([C@@]2(CO)CC1)[C@@]31CO1`, the IC50 turned out to be 3600 nM.

In the case of `CC1=C[C@H]2O[C@@H]3C[C@H]4OC(=O)/C=C\C=C\[C@]5([C@H](C)O)OCC/C(=C\C(=O)OC[C@@]2(CC1)[C@]4(C)[C@@]31CO1)[C@H]5O`, the IC50 was 2000 nM.

Regarding `CC1=C[C@H]2O[C@@H]3C[C@H]4OC(=O)/C=C\C=C\[C@]5([C@H](C)O)OCC/C(=C\C(=O)OC[C@@]2(CC1)[C@]4(C)[C@@]31CO1)[C@@H]5O`, the half-inhibitory concentration (IC50) worked out at 0.4 nM.

For `CC1=C[C@H]2O[C@@H]3C[C@H]4OC(=O)/C=C\C=C\[C@H]([C@@H](C)O)OCC/C(C)=C/C(=O)OC[C@@]2(CC1)[C@]4(C)[C@]31CO1` [RORIDIN E], the IC50 turned out to be 0.03 nM.

The subject of another assay is MDA-MB-468. The assay is described as follows: Cytotoxicity against human MDA-MB-468 cells assessed as growth inhibition after 72 hrs by SRB assay. Format: functional, cell-based. The settings on record: Homo sapiens, MDA-MB-468, 72 h.
`C/C1=C\C(=O)OC[C@@]23CC[C@](C)(O)[C@H]4C[C@@]5(O)[C@@H](C[C@@H](OC(=O)/C=C\C=C\[C@H]([C@@H](C)O)OCC1)[C@]25C)O[C@H]43`: the 50% inhibitory concentration (IC50) was > 10000 nM.

As to `COc1cc([C@@H]2c3cc4c(cc3[C@@H](O[C@@H]3O[C@@H]5CO[C@@H](C)O[C@H]5[C@H](O)[C@H]3O)[C@H]3COC(=O)[C@H]23)OCO4)cc(OC)c1O` [ETOPOSIDE], the IC50 amounted to 2100 nM.

`COc1cccc2c1C(=O)c1c(O)c3c(c(O)c1C2=O)C[C@@](O)(C(=O)CO)C[C@@H]3O[C@H]1C[C@H](N)[C@H](O)[C@H](C)O1` [DOXORUBICIN]: the 50% inhibitory concentration (IC50) is 70 nM.

Still in this assay, the particulars now being: mda-mb-468.
Take `CC1=C[C@H]2O[C@@H]3C[C@@H](OC(=O)/C=C\C=C\[C@@H](OCCC4=CC(=O)OC4)[C@@H](C)O)[C@](C)([C@@]2(CO)CC1)[C@@]31CO1`: the concentration for half-maximal inhibition (IC50) is > 10000 nM.

With `COC(=O)/C=C/C=C/[C@@H](OCC/C(C)=C/C(=O)OC[C@]12CCC(C)=C[C@H]1O[C@@H]1C[C@@H](O)[C@@]2(C)[C@@]12CO2)[C@@H](C)O`, the IC50 is > 10000 nM.

With `CC1=C[C@H]2O[C@@H]3C[C@@H](OC(=O)/C=C\C=C\[C@@H](OCCC4=CC(=O)OC4)[C@@H](C)O)[C@](C)([C@@]2(COC(=O)/C=C(\C)CCO)CC1)[C@@]31CO1`, the IC50 was 80 nM.

Turning to `CC1=C[C@H]2O[C@@H]3C[C@@H](OC(=O)/C=C\C=C\[C@]4([C@H](C)O)OCC/C(=C\C(=O)O)[C@@H]4O)[C@](C)([C@@]2(CO)CC1)[C@@]31CO1`, the IC50 was > 10000 nM.

For the compound `CC1=C[C@H]2O[C@@H]3C[C@H]4OC(=O)/C=C\C=C\[C@]5([C@H](C)O)OCC/C(=C\C(=O)OC[C@@]2(CC1)[C@]4(C)[C@@]31CO1)[C@H]5O`, the IC50 was 3400 nM.

Take `CC1=C[C@H]2O[C@@H]3C[C@H]4OC(=O)/C=C\C=C\[C@]5([C@H](C)O)OCC/C(=C\C(=O)OC[C@@]2(CC1)[C@]4(C)[C@@]31CO1)[C@@H]5O`: the IC50 worked out at 3 nM.

With `CC1=C[C@H]2O[C@@H]3C[C@H]4OC(=O)/C=C\C=C\[C@H]([C@@H](C)O)OCC/C(C)=C/C(=O)OC[C@@]2(CC1)[C@]4(C)[C@]31CO1` [RORIDIN E], the IC50 is 0.05 nM.

In the next assay the test system is BT-549. As to the kind of experiment: Cytotoxicity against human BT549 cells assessed as growth inhibition after 72 hrs by SRB assay. Format: functional, cell-based. The note with it: Homo sapiens, BT-549, 72 h.
Turning to `C/C1=C\C(=O)OC[C@@]23CC[C@](C)(O)[C@H]4C[C@@]5(O)[C@@H](C[C@@H](OC(=O)/C=C\C=C\[C@H]([C@@H](C)O)OCC1)[C@]25C)O[C@H]43`, the IC50 is > 10000 nM.

Consider `COc1cc([C@@H]2c3cc4c(cc3[C@@H](O[C@@H]3O[C@@H]5CO[C@@H](C)O[C@H]5[C@H](O)[C@H]3O)[C@H]3COC(=O)[C@H]23)OCO4)cc(OC)c1O` [ETOPOSIDE], for which the IC50 is 1800 nM.

On to `COc1cccc2c1C(=O)c1c(O)c3c(c(O)c1C2=O)C[C@@](O)(C(=O)CO)C[C@@H]3O[C@H]1C[C@H](N)[C@H](O)[C@H](C)O1` [DOXORUBICIN], for which the IC50 was 10 nM.

The same assay, now with this note: bt-549.
In the case of `CC1=C[C@H]2O[C@@H]3C[C@@H](OC(=O)/C=C\C=C\[C@@H](OCCC4=CC(=O)OC4)[C@@H](C)O)[C@](C)([C@@]2(CO)CC1)[C@@]31CO1`, the IC50 is > 10000 nM.

Regarding `COC(=O)/C=C/C=C/[C@@H](OCC/C(C)=C/C(=O)OC[C@]12CCC(C)=C[C@H]1O[C@@H]1C[C@@H](O)[C@@]2(C)[C@@]12CO2)[C@@H](C)O`, the IC50 was > 10000 nM.

As for `CC1=C[C@H]2O[C@@H]3C[C@@H](OC(=O)/C=C\C=C\[C@@H](OCCC4=CC(=O)OC4)[C@@H](C)O)[C@](C)([C@@]2(COC(=O)/C=C(\C)CCO)CC1)[C@@]31CO1`, the IC50 stood at 4 nM.

With `CC1=C[C@H]2O[C@@H]3C[C@@H](OC(=O)/C=C\C=C\[C@]4([C@H](C)O)OCC/C(=C\C(=O)O)[C@@H]4O)[C@](C)([C@@]2(CO)CC1)[C@@]31CO1`, the IC50 is 1800 nM.

In the case of `CC1=C[C@H]2O[C@@H]3C[C@H]4OC(=O)/C=C\C=C\[C@]5([C@H](C)O)OCC/C(=C\C(=O)OC[C@@]2(CC1)[C@]4(C)[C@@]31CO1)[C@H]5O`, the IC50 was determined as 1800 nM.

Turning to `CC1=C[C@H]2O[C@@H]3C[C@H]4OC(=O)/C=C\C=C\[C@]5([C@H](C)O)OCC/C(=C\C(=O)OC[C@@]2(CC1)[C@]4(C)[C@@]31CO1)[C@@H]5O`, the IC50 came to 0.3 nM.

On to `CC1=C[C@H]2O[C@@H]3C[C@H]4OC(=O)/C=C\C=C\[C@H]([C@@H](C)O)OCC/C(C)=C/C(=O)OC[C@@]2(CC1)[C@]4(C)[C@]31CO1` [RORIDIN E], for which the IC50 turned out to be 0.02 nM.
